Entries after “also recorded” stand apart in the source; their conditions may differ.

The subject of assay [1] is CD8α+ cDCs. Briefly: In vitro stimulation of FL expanded ex-vivo isolated splenic CD8α+ cDCs, IFN-λ. In kind it is cell-based, mouse. As to conditions: 5×10^5/ml, IL-3+GM-CSF+IL-4+IFN-γ, 100 μg/ml, 18 h. The procedure: FIG. 13 depicts that in vivo FL expanded CD8α+cDCs and eCD8α cDCs selectively produce IFN-λ to poly AU in vitro. Highly purified FL expanded ex-vivo isolated splenic 5×10^5/ml were stimulated in the presence of IL-3+GM-CSF+IL-4+IFN-γ with either poly IC (100 μg/ml) or poly AU (100 μg/ml). After 18 h supernatants were analyzed for IFN-λ.
To see if the IFN-λ production to poly AU seen in vivo would correspond with the same cells as in response to poly IC we enhanced the amount of DC in mice with FL treatment and sorted CD8α+ cDCs, eCD8α cDCs and CD11b+/CD172a+cDCs. Those cells were stimulated with poly IC or poly AU.

For assay [2], the system named is CD8-cDCs. Briefly: In vitro stimulation of sorted splenic CD8- cDCs, IFN-λ ELISA. In kind it is cell-based, mouse. As to conditions: 5×10^5/ml, IL-3 and GM-CSF, 18 h. From the text: (§1) DC subsets were isolated from pooled mouse spleens as described (Vremec et al., 2007). Briefly, spleens were chopped, digested with collagenase (Worthington Biochemical) and DNase (Roche) at room temperature, and treated with EDTA. Low-density cells were enriched by density centrifugation; non-DC lineage cells were coated with mAbs (anti-CD3, KT3-1.1; anti-Thy-1, T24/31.7; anti Gr-1, 1A8; anti-CD19, ID3; anti-erythrocytes, TER119 and anti-NK cells, DX5) and depleted using anti-rat Ig magnetic beads (Qiagen). Dead cells were excluded by propidium iodide staining. cDC populations were sorted based on the expression of CD11c, CD45RA, CD4, CD8a and CD172a and pDCs were purified based on CD11c, CD45RA, and CD172a (all BD Biosciences) expression. Cell sorting was performed on a FACS Aria instrument (BD Biosciences).
Cells were stimulated in vitro with single TLR agonists or combinations thereof containing 10 μg/ml Pam3Cys (InvivoGen), 100 μg/ml poly IC (Axxora), 10 μg/ml LPS (E. coli; Sigma-Aldrich or Axxora), 10 μg/ml R848 (Axxora), 1 μM CpG-1668 or CpG-2216 (TIB-Molbiol), 1 μg/ml profilin of toxoplasma (Axxora). […] IFN-λ in supernatants was analyzed by ELISA and IL-12p70 was determined by FlowCytomix bead assay (Bender Medsystems) according to manufacturer's protocol.
For orientation: In an ELISA, binding on a coated surface is turned into a signal by an enzyme label.

For assay [3], the system named is splenocytes. Briefly: Spleen cell fractions separated after in vivo injection, cultured 18 h, IFN-λ in supernatant. More on the design: species or system mouse. As to conditions: spleens 1.5-2 h after i.v. injection, magnetic bead separation, 18 h culture. The procedure:
1.5-2 h after i.v. injection of poly IC spleens were harvested and processed. Cell free supernatants were analyzed for IFN-λ after in vitro culture for 18 h. (A) 5×10^6 cells/ml total spleen cells or cells separated by density centrifugation into light density cells or heavy density cells. (B) total spleen cells 25×10^6 cells/ml of WT or CD11c-DTR-tg mice treated 2 days before with diphtheria toxin (DT). (C) Total spleen cells before separation or after magnetic bead separation into the denoted populations. The initial cell number of splenocytes added onto the column was 20×10^6. Without further counting each fraction was distributed into 2 wells with 200 μl medium/well. Bars represent the mean±SD of 2 independent experiments (A+C) or 1 experiment (B) using 2 mice per experiment.
Spleen cells 1.5 h after in vivo injection with DISC HSV-1 were separated with anti-CD45R and magnetic beads into positive and negative fractions. The CD45R negative fraction was further separated into cells positive or negative for CD8α. Separated cells were cultured in vitro for the next 18 h and cell-free supernatants were analyzed for IFN-λ.^˜ Bars represent the mean±SD of 2 independent experiments using one mouse per experiment.

Assay [4] deals with BDCA3+ DC. Briefly: Stimulation of human BDCA3+ DC, IFN-λ1 and IFN-λ2 ELISA. In kind it is cell-based. The following applies: BDCA3 positive cells vs BDCA1 cells, all donors, 100 μg/ml, 18-24 h. The procedure:
(§2) PBMC were prepared from peripheral blood of non-atopic blood donors by density gradient centrifugation and BDCA3+ DC were purified from PBMC using the BDCA3/CD141+Dendritic Cell Isolation Kit (Miltenyi Biotech) on an AutoMACS™ separator. Subsequently, BDCA1+ DC were purified from the BDCA3-depleted PBMC using the BDCA1/CD1c+ Dendritic Cell Isolation Kit (Miltenyi Biotech). […] After stimulation for 18-24 h the supernatants were analyzed for IFN-λ1 and IFN-λ2 by ELISA according to manufacturer's recommendations (Tebu-bio).

For assay [5], the system named is mice. Briefly: In vivo challenge (i.v.), serum IFN-λ and IFN-α by ELISA. More on the design: species or system mouse. As to conditions: 100 μg i.v. The procedure: Mice were injected i.v. into the lateral tail vein with 100 μg poly IC (Axxora) and serum was collected 3-4 h after challenge. Sera were pre-diluted 1/5, […] was analyzed by ELISA as described (Hochrein et al., 2004). IFN-λ was determined by an IFN-λ3 (IL-28B) ELISA (R&D Systems).

Assay [6] relates to splenic CD8+ cDC. In words: In vitro stimulation of sorted splenic CD8+ cDCs, cytokines in supernatant (IFN-λ ELISA, IL-12p70 FlowCytomix). In kind it is cell-based, mouse. As to conditions: 5×10^5/ml, IL-3 and GM-CSF, supernatants after 18 h.
Text: as §1
(§3) Cells were stimulated in vitro with single TLR agonists or combinations thereof containing 10 μg/ml Pam3Cys (InvivoGen), 100 μg/ml poly IC (Axxora), 10 μg/ml LPS (E. coli; Sigma-Aldrich or Axxora), 10 μg/ml R848 (Axxora), 1 μM CpG-1668 or CpG-2216 (TIB-Molbiol), 1 μg/ml profilin of toxoplasma (Axxora). The recombinant cytokines mouse-IL-3, mouse-IL-4, rat-IFN-γ (PeproTech) and mouse-GM-CSF (Tebu-Bio) (10 ng/ml each) were added as indicated. The addition of IL-3 and GM-CSF was based on previous observations that GM-CSF promoted the production of IL-12p70 and that the combination of IL-3 and GM-CSF increased virus induced IFN-λ production in pDCs and cDCs (Hochrein et al., 2000; Hochrein et al., 2004). As source of a parapoxvirus Zylexis, which is used for veterinary purposes was purchased from a pharmacy. HSV-1, in replication deficient form known as disc HSV-1 (HSV-1d) was used as described (Hochrein et al., 2004). IFN-λ in supernatants was analyzed by ELISA and IL-12p70 was determined by FlowCytomix bead assay (Bender Medsystems) according to manufacturer's protocol.

For assay [7], the system named is PBMC. Briefly: Stimulation of human PBMC, IFN-λ1 and IFN-λ2 ELISA. Format: cell-based. As to conditions: PBMCs and fractions of DC-enriched PBMCs, IL-3, GM-CSF and IFN-γ, 18-24 h. The procedure:
as §2

For assay [8], the system named is FLDC-derived eCD8+ cDCs. In words: In vitro stimulation of sorted FLDC-derived eCD8+ cDCs, IFN-λ ELISA. In kind it is cell-based, mouse. The procedure:
FL bone marrow culture derived dendritic cells (FLDC) were prepared as described (Hochrein et al., 2004). pDCs and eCD8+ and eCD8^− cDC subsets were sorted based on the expression of CD11c, CD45R, CD11b, CD24, and CD172a or CD103 (all BD Biosciences).
as §3

In the case of “Polyinosinic:polycytidylic acid [poly IC]”, the IFN-λ production result in assay [1] is “able to produce IFN-λ”; in assay [2] it was “largely unable to participate in IFN-λ production”; in assay [6], “major producers; also recorded: induced IFN-λ”; in assay [8] (WT eCD8+ cDCs, 18 h) it was “produced IFN-λ”. Besides, the “splenocyte fraction with which IFN-λ production separates” value in assay [3] is “separates with CD45R−/CD11c+/CD8α+ splenocytes”. Also, the IFN-λ1 production entry in assay [4] is given as “major producers”. Also, the IFN-λ2 production entry in assay [4] is recorded as “major producers”. In assay [5] (BM reconstituted, IL-15R-KO, RAG1-KO, FL-KO, IRF8-KO vs WT mice (FIG. 16), 3-4 h), the “serum IFN-λ, dependence on hematopoietic cells, FL and IRF8” value was “depends on hematopoietic cells, FL and IRF8”. Further, the “Serum levels of IFN-λ” value is “almost abrogated” in assay [5] (FL-KO mice, 3-4 h) and “easily detectable; also recorded: Large amounts” in assay [5] (WT mice, sera after 3-4 h). Moreover, the “serum IFN-λ” value in assay [5] (IRF7-KO mice, 3-4 h) is given as “largely reduced”; in assay [5] (TLR3-KO mice, 3-4 h), “abrogated IFN-λ production”. In addition, the “serum IFN-λ, dependence on IRF3 and IRF7” value in assay [5] (mice of indicated genotype (FIG. 15), 3-4 h) was “depends on IRF3 and IRF7”. The IL-12p70 production result in assay [6] is on record as “not IL-12p70 production”. Besides, the “IFN-λ1 (IL-29) production” value in assay [7] is listed as “induced”. In assay [7], the “IFN-λ2 (IL-28A) production” value was “induced”. Besides, the “IFN-λ production, dependence on Cardif, MyD88, TLR3” value in assay [8] (eCD8+ cDCs generated from Cardif-, MyD88- or TLR3-KO mice) was “involvement of TLR3 but not Cardif or MyD88”.

The values are drawn from US9090897B2, “Production of IFN-lambda by conventional dendritic cells” (Bavarian Nordic A/S, priority 2009, dated 2015).
